Laboratory results reported in patent US12391737B2, “Soluble NPY2 receptor agonists” (Boehringer Ingelheim International GmbH, priority 2020, dated 2025).

What was measured:
[1] = target: T1, Human Neuropeptide Y2 Receptor (Homo sapiens, UniProt P49146); test: Radioligand binding competition assay (RLB); conditions: Table 3, 125I-PYY(1-36) competition; read-out: Ki
T1 construct: purchased CHEMICON HTS066M
T1 sequence (P49146 1-381): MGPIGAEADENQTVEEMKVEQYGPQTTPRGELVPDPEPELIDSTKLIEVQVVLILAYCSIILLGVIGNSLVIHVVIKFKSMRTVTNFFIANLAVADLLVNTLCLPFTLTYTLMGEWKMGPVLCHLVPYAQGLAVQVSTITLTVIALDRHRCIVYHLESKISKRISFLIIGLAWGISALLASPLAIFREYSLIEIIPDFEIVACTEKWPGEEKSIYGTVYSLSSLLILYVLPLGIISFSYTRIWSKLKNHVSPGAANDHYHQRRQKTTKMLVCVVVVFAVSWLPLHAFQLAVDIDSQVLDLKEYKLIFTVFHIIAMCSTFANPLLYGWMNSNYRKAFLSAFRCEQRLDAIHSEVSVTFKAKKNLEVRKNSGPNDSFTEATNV
Summary of the method: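 Competition binding used membranes expressing the receptor (0.5 μg protein/well) in 50 mM HEPES, 5 mM MgCl2, 1 mM CaCl2, pH 7.4 with 0.2% ovalbumin, incubated 2 h at room temperature with shaking. Bound radioligand was collected by filtration onto PEI-soaked GF/C filters and counted; IC50 from nonlinear sigmoidal fits.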

[2] = target: T2, human NPY1 receptor (hY1R) (Homo sapiens, UniProt P25929); test: HTRF cAMP Gi assay, hY1R; assay type: cell-based; conditions: CHO-K1 cells
T2 construct: expressed in transfected cells; host or cells: CHO-K1
T2 sequence (P25929 1-384): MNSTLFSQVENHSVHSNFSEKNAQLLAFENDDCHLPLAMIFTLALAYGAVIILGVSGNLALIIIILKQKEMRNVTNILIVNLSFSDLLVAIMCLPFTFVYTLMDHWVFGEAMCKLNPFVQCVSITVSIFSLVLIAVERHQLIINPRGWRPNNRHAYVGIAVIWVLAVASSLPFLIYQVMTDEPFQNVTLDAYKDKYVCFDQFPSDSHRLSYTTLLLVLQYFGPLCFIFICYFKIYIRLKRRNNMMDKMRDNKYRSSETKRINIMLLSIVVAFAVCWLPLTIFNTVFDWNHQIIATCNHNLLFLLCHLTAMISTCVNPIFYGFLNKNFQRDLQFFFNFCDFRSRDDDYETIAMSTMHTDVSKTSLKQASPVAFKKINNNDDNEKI
Method: Briefly, the production of intracellular cAMP will generate a competition between unlabeled cAMP and exogenously added d2-cAMP for anti-cAMP antibodies conjugated to cryptate. CHO-K1 cells stably expressing the human NPY1, NPY2, NPY4 and NPY5 receptors were used with the cells brought to life from a frozen stock immediately before assay performance. 2000 cells per well were applied for all four NPY receptor subtype assays. A 384-well format was used applying a total volume of 20 μl using 5 μl cells, 2.5 μl peptide agonist, 2.5 μl forskolin and 5 μl of each of the fluorophores. […] Concentration-response evaluation of compounds was performed with 11 concentrations of agonist peptides (covering 3 decades). EC50 values were calculated by nonlinear regression using sigmoid concentration-response with variable slope.

[3] = target: T3, human NPY4 receptor (hY4R) (Homo sapiens, UniProt P50391); test: HTRF cAMP Gi assay, hY4R; assay type: cell-based; conditions: CHO-K1 cells
T3 construct: expressed in transfected cells; host or cells: CHO-K1

[4] = Solubility determination; conditions: for Sol6: pH 6; for Sol7: pH 7
Summary of the method: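 Shake-flask style: 10 mg/ml peptide (TFA salt), 0.1 M sodium diphosphate pH 6.4/7.0, 600 rpm, 2 h, RT; filter; dilute 1 mg/ml in 50% MeCN; RP-UPLC, 0–100% B over 2 min, 50 °C. Solubility = sample/control area ratio. Final pH recorded.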

[5] = target: T4, human NPY5 receptor (hY5R) (Homo sapiens, UniProt Q15761); test: HTRF cAMP Gi assay, hY5R
T4 sequence (Q15761 1-445): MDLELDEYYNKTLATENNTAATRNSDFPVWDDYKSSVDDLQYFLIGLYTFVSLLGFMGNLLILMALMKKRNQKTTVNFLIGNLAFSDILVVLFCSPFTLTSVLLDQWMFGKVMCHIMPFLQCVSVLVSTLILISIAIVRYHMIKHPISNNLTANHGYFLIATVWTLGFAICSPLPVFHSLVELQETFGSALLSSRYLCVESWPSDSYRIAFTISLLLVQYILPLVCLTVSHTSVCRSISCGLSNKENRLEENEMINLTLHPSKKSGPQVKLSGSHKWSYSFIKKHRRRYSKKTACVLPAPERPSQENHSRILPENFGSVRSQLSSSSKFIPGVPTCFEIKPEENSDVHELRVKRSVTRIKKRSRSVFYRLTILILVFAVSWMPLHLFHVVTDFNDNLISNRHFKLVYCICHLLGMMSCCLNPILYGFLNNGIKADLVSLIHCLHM

T3 sequence (P50391 whole entry): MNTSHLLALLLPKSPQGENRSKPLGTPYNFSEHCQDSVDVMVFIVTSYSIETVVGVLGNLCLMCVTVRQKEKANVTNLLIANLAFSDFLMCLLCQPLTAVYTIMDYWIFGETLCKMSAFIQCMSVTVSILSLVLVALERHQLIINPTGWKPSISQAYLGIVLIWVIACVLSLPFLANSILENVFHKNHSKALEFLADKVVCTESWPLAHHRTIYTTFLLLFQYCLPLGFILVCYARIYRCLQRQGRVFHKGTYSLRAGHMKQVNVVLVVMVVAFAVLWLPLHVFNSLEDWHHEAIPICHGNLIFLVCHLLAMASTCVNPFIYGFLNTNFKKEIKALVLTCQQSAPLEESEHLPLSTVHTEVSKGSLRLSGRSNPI

SMILES | Ki [1] | EC50 [2] | EC50 [3] | Sol6 [4] | Sol7 [4] | EC50 [5]
CC(C)CC(=O)N[C@@H](C)C(=O)N1CCC[C@H]1C(=O)N[C@@H](CCC(=O)O)C(=O)N[C@@H](CCCCNC(=O)CCCCCNC(=O)CC[C@H](NC(=O)CCCCCCCCCCCCCCCCC(=O)O)C(=O)O)C(=O)N1CCC[C@H]1C(=O)N[C@@H](CCC(=O)O)C(=O)N[C@@H](C)C(=O)N[C@@H](CC(=O)O)C(=O)N[C@@H](C)C(=O)N[C@H](C(=O)N1CCC[C@H]1C(=O)N[C@@H](CCC(=O)O)C(=O)N[C@@H](CCC(=O)O)C(=O)N[C@@H](CC(C)C)C(=O)N[C@@H](CCC(N)=O)C(=O)N[C@@H](CCCNC(=N)N)C(=O)N[C@@H](Cc1ccc(O)cc1)C(=O)N[C@@H](Cc1ccc(O)cc1)C(=O)N[C@H](C(=O)N[C@@H](C)C(=O)N[C@@H](CC(C)C)C(=O)N[C@@H](CCCNC(=N)N)C(=O)N[C@@H](Cc1c[nH]cn1)C(=O)N[C@@H](Cc1ccc(O)cc1)C(=O)N[C@@H](Cc1ccc(O)cc1)C(=O)N[C@@H](CC(N)=O)C(=O)N[C@@H](Cc1c[nH]c2ccccc12)C(=O)N[C@@H](CC(C)C)C(=O)N[C@H](C(=O)N[C@@H](CCCNC(=N)N)C(=O)N[C@@H](CCC(N)=O)C(=O)N[C@@H](CCCNC(=N)N)C(=O)N[C@@H](Cc1ccc(O)cc1)C(N)=O)[C@@H](C)O)C(C)C)[C@@H](C)O [Compound 136, N{alpha-4}-(3-methylbutanoyl)-N{epsilon-7}-(6-[(4S)-4-carboxy-4-(17-carboxyheptadecanamido)butanamido]hexanoyl)-[4A,7K,9E,10A,13T,18Q,22V,23A,28Y,30W,31L]-hPYY(4-36)] | 0.00107 µM | > 5 µM | > 5 µM | 9.6 mg/mL | 10.0 mg/mL | > 5 µM
CC[C@H](C)[C@H](NC(=O)[C@H](CCC(=O)O)NC(=O)[C@H](CCC(=O)O)NC(=O)[C@@H]1CCCN1C(=O)[C@H](CO)NC(=O)[C@H](C)NC(=O)[C@H](CCC(=O)O)NC(=O)[C@H](CCC(=O)O)NC(=O)[C@H](CCC(=O)O)NC(=O)[C@@H]1CCCN1C(=O)[C@H](CCCCNC(=O)CCCCCNC(=O)CC[C@H](NC(=O)CCCCCCCCCCCCCCCCC(=O)O)C(=O)O)NC(=O)[C@H](CCC(=O)O)NC(=O)[C@@H]1CCCN1C(=O)[C@H](C)NC(=O)CC(C)C)C(=O)N[C@@H](CCC(N)=O)C(=O)N[C@@H](CCCNC(=N)N)C(=O)N[C@@H](Cc1ccc(O)cc1)C(=O)N[C@@H](Cc1ccc(O)cc1)C(=O)N[C@H](C(=O)N[C@@H](CO)C(=O)N[C@@H](CC(C)C)C(=O)N[C@@H](CCCNC(=N)N)C(=O)N[C@@H](Cc1c[nH]cn1)C(=O)N[C@@H](Cc1ccc(O)cc1)C(=O)N[C@@H](Cc1ccc(O)cc1)C(=O)N[C@@H](CC(N)=O)C(=O)N[C@@H](Cc1c[nH]c2ccccc12)C(=O)N[C@@H](CC(C)C)C(=O)N[C@H](C(=O)N[C@@H](CCCNC(=N)N)C(=O)N[C@@H](CCC(N)=O)C(=O)N[C@@H](CCCNC(=N)N)C(=O)N[C@@H](Cc1ccc(O)cc1)C(N)=O)[C@@H](C)O)C(C)C [Compound 193, N{alpha-4}-(3-methylbutanoyl)-N{epsilon-7}-(6-[(4S)-4-carboxy-4-(17-carboxyheptadecanamido)butanamido]hexanoyl)-[4A,7K,9E,11E,17I,18Q,22V,28Y,30W,31L]-hPYY(4-36)] | 0.00342 µM | > 5 µM | > 5 µM | 8.9 mg/mL | 9.1 mg/mL | > 5 µM
CC(C)CC(=O)N[C@@H](C)C(=O)N1CCC[C@H]1C(=O)N[C@@H](CCC(=O)O)C(=O)N[C@@H](CCCCNC(=O)CCCCCNC(=O)CC[C@H](NC(=O)CCCCCCCCCCCCCCCCC(=O)O)C(=O)O)C(=O)N1CCC[C@H]1C(=O)N[C@@H](CCC(=O)O)C(=O)N[C@@H](CCC(=O)O)C(=O)N[C@@H](C)C(=O)N[C@@H](C)C(=O)N[C@H](C(=O)N1CCC[C@H]1C(=O)N[C@@H](CCC(=O)O)C(=O)N[C@@H](CCC(=O)O)C(=O)N[C@@H](CC(C)C)C(=O)N[C@@H](CCC(N)=O)C(=O)N[C@@H](CCCNC(=N)N)C(=O)N[C@@H](Cc1ccc(O)cc1)C(=O)N[C@@H](Cc1ccc(O)cc1)C(=O)N[C@H](C(=O)N[C@@H](CO)C(=O)N[C@@H](CC(C)C)C(=O)N[C@@H](CCCNC(=N)N)C(=O)N[C@@H](Cc1c[nH]cn1)C(=O)N[C@@H](Cc1ccc(O)cc1)C(=O)N[C@@H](Cc1ccc(O)cc1)C(=O)N[C@@H](CC(N)=O)C(=O)N[C@@H](Cc1c[nH]c2ccccc12)C(=O)N[C@@H](CC(C)C)C(=O)N[C@H](C(=O)N[C@@H](CCCNC(=N)N)C(=O)N[C@@H](CCC(N)=O)C(=O)N[C@@H](CCCNC(=N)N)C(=O)N[C@@H](Cc1ccc(O)cc1)C(N)=O)[C@@H](C)O)C(C)C)[C@@H](C)O [Compound 128, N{alpha-4}-(3-methylbutanoyl)-N{epsilon-7}-(6-[(4S)-4-carboxy-4-(17-carboxyheptadecanamido)butanamido]hexanoyl)-[4A,7K,9E,11A,13T,18Q,22V,28Y,30W,31L]-hPYY(4-36)] | 0.00291 µM | > 5 µM | > 5 µM | 10.0 mg/mL | >10.0 mg/mL | > 5 µM
CC[C@H](C)[C@H](NC(=O)[C@H](CCC(=O)O)NC(=O)[C@H](CCC(=O)O)NC(=O)[C@@H]1CCCN1C(=O)[C@@H](NC(=O)[C@H](C)NC(=O)[C@H](CC(=O)O)NC(=O)[C@H](CCC(=O)O)NC(=O)[C@H](CCC(=O)O)NC(=O)[C@@H]1CCCN1C(=O)[C@H](CCCCNC(=O)CCCCCNC(=O)CC[C@H](NC(=O)CCCCCCCCCCCCCCCCC(=O)O)C(=O)O)NC(=O)[C@H](C)NC(=O)[C@@H]1CCCN1C(=O)[C@H](C)NC(=O)CC(C)C)[C@@H](C)O)C(=O)N[C@@H](CCC(N)=O)C(=O)N[C@@H](CCCNC(=N)N)C(=O)N[C@@H](Cc1ccc(O)cc1)C(=O)N[C@@H](Cc1ccc(O)cc1)C(=O)N[C@H](C(=O)N[C@@H](CO)C(=O)N[C@@H](CC(C)C)C(=O)N[C@@H](CCCNC(=N)N)C(=O)N[C@@H](Cc1c[nH]cn1)C(=O)N[C@@H](Cc1ccc(O)cc1)C(=O)N[C@@H](Cc1ccc(O)cc1)C(=O)N[C@@H](CC(N)=O)C(=O)N[C@@H](Cc1c[nH]c2ccccc12)C(=O)N[C@@H](CC(C)C)C(=O)N[C@H](C(=O)N[C@@H](CCCNC(=N)N)C(=O)N[C@@H](CCC(N)=O)C(=O)N[C@@H](CCCNC(=N)N)C(=O)N[C@@H](Cc1ccc(O)cc1)C(N)=O)[C@@H](C)O)C(C)C [Compound 114, N{alpha-4}-(3-methylbutanoyl)-N{epsilon-7}-(6-[(4S)-4-carboxy-4-(17-carboxyheptadecanamido)butanamido]hexanoyl)-[4A,6A,7K,9E,13T,17I,18Q,22V,28Y,30W,31L]-hPYY(4-36)] | 0.00095 µM | > 5 µM | > 5 µM | 8.5 mg/mL | 9.2 mg/mL | > 5 µM
